# Assay results reported in patent publication US5760092A, “Allocolchinones and uses thereof” (Brandeis University, priority 1996, dated 1998).
# Values joined by “and” are separate entries in the source; they are usually repeats but may differ in a detail not shown here. Equal entries are not always repeated. “Also recorded” adds a separate entry of the source. Where two headings read alike, the source gives them in different places.
# Legend:
# [1] = system: RXF-393 renal cancer cells; experiment: cells; settings: Homo sapiens; for GI50: RXF 393; for activity at 10 µM: RXF 393, read-out: Percent Growth, log10 conc -5.0; for activity at 1 µM: RXF 393, read-out: Percent Growth, log10 conc -6.0; for activity at 0.1 µM: RXF 393, read-out: Percent Growth, log10 conc -7.0; for activity at 0.01 µM: RXF 393, read-out: Percent Growth, log10 conc -8.0
# [2] = system: MOLT-4 leukemia cells
# [3] = system: OVCAR-8 ovarian cancer cells
# [4] = system: A498 renal cancer cells; experiment: cells; settings: Homo sapiens
# [5] = system: SF-295 CNS cancer cells
# [6] = system: A498 renal cancer cells
# [7] = system: HOP-92 non-small cell lung cancer cells
# [8] = system: CAKI-1 renal cancer cells; experiment: cells; settings: Homo sapiens
# [9] = system: SF-268 CNS cancer cells
# [10] = system: HOP-62 non-small cell lung cancer cells
# [11] = system: HS 578T breast cancer cells
# [12] = system: SF-539 CNS cancer cells
# [13] = system: U251 CNS cancer cells
# [14] = system: OVCAR-3 ovarian cancer cells
# [15] = system: SF-295 CNS cancer cells; experiment: cells; settings: Homo sapiens
# [16] = system: tumor cell lines; experiment: cells; format: cell-based
# [17] = system: HOP-62 non-small cell lung cancer cells; experiment: cells; settings: Homo sapiens
# [18] = system: HOP-92 non-small cell lung cancer cells; experiment: cells; settings: Homo sapiens
# [19] = system: SNB-75 CNS cancer cells
# [20] = system: SNB-19 CNS cancer cells
# [21] = system: tubulin; format: biochemical, calf; settings: in vitro; read-out: LC50 (inhibition of microtubule assembly in vitro)
# [22] = system: SK-OV-3 ovarian cancer cells
# [23] = system: MCF7/ADR-RES breast cancer cells; experiment: cells; format: cell-based
# [24] = system: HS 578T breast cancer cells; experiment: cells; settings: Homo sapiens
# [25] = system: RXF-393 renal cancer cells
# [26] = system: SK-OV-3 ovarian cancer cells; experiment: cells; settings: Homo sapiens
# [27] = system: OVCAR-3 ovarian cancer cells; experiment: cells; settings: Homo sapiens
structure (smiles),measurement,setting,value
"COc1cc2c(c(OC)c1OC)-c1ccc(OC)c(=O)cc1[C@@H](NC(C)=O)CC2 [Colchicine, reference compound]",GI50,[1],< 0.01 µM
same,activity at 10 µM,[1],13%
same,activity at 1 µM,[1],9%
same,activity at 0.1 µM,[1],7%
same,activity at 0.01 µM,[1],48%
same,GI50,[2],0.0356 µM
same,Percent Growth,"[2]; log10 conc -4.0, 100 µM",1%
same,Percent Growth,[2]; log10 conc -5.0,0%
same,Percent Growth,"[2]; log10 conc -6.0, 1 µM",1%
same,Percent Growth,[2]; log10 conc -8.0,98%
same,Percent Growth,"[3]; log10 conc -4.0, 100 µM",-39%
same,Percent Growth,[3]; log10 conc -8.0,99%
CCCC(=O)NC1CCc2cc(OC)c(OC)c(OC)c2-c2ccc(C(C)=O)cc21 (centres unmarked),GI50,[4]; A498,0.0104 µM
same,CC50,"[4]; A498, read-out: LC50",50 µM
same,TGI,[5],> 100 µM
same,Percent Growth,"[5]; log10 conc -4.0, 100 µM",19%
same,Percent Growth,"[5]; log10 conc -5.0, 10 µM",12%
same,GI50,[6],< 0.01 µM
same,CC50,"[6]; human, a498 renal cancer cells",> 100 µM
same,Percent Growth,"[6]; log10 conc -6.0, 1 µM",-40%
same,Percent Growth,[6]; log10 conc -8.0,13%
same,GI50,[7],< 0.01 µM
same,TGI,[7],> 100 µM
same,GI50,[8]; CAKI-1,< 0.01 µM
same,CC50,"[8]; CAKI-1, read-out: LC50",> 100 µM
same,GI50,[9],< 0.01 µM
same,CC50,"[9]; human, sf-268 cns cancer cells",> 100 µM
same,Percent Growth,"[9]; log10 conc -5.0, 10 µM",14% and 25%
same,Percent Growth,"[9]; log10 conc -6.0, 1 µM",18% and 30%
same,Percent Growth,"[9]; log10 conc -7.0, 0.1 µM",29% and 31%
same,Percent Growth,"[9]; log10 conc -8.0, 0.01 µM",43% and 32%
same,GI50,[1],< 0.01 µM
same,CC50,"[1]; RXF 393, read-out: LC50",> 100 µM
same,activity at 10 µM,[1],30%
same,activity at 1 µM,[1],39%
same,activity at 0.1 µM,[1],36%
same,activity at 0.01 µM,[1],18%
same,TGI,[10],> 100 µM
same,Percent Growth,"[10]; log10 conc -4.0, 100 µM",34%
same,Percent Growth,"[10]; log10 conc -5.0, 10 µM",44%
same,Percent Growth,"[10]; log10 conc -6.0, 1 µM",34%
same,Percent Growth,"[10]; log10 conc -7.0, 0.1 µM",25% and 46%
same,TGI,[11],> 100 µM
same,Percent Growth,"[11]; log10 conc -5.0, 10 µM",41%
same,Percent Growth,"[11]; log10 conc -6.0, 1 µM",43%
same,Percent Growth,"[11]; log10 conc -7.0, 0.1 µM",31%
same,GI50,[12],< 0.01 µM
same,TGI,[12],0.0129 µM
same,CC50,"[12]; human, sf-539 cns cancer cells",> 100 µM
same,Percent Growth,"[12]; log10 conc -4.0, 100 µM",-8% and 1%
same,Percent Growth,"[12]; log10 conc -5.0, 10 µM",-13% and -12%
same,Percent Growth,"[12]; log10 conc -6.0, 1 µM",-8% and -16%
same,Percent Growth,"[12]; log10 conc -7.0, 0.1 µM",-13% and -11%
same,Percent Growth,[12]; log10 conc -8.0,2%
same,Percent Growth,"[12]; log10 conc -8.0, 0.01 µM",-8%
same,GI50,[13],< 0.01 µM
same,CC50,"[13]; human, u251 cns cancer cells",> 100 µM
same,Percent Growth,[13]; log10 conc -5.0,5%
same,Percent Growth,"[13]; log10 conc -6.0, 1 µM",16% and 7%
same,Percent Growth,"[13]; log10 conc -7.0, 0.1 µM",-16%
same,Percent Growth,"[13]; log10 conc -8.0, 0.01 µM",1% and 4%
same,GI50,[2],< 0.01 µM
same,TGI,[2],> 100 µM
same,CC50,"[2]; human, molt-4 leukemia cells",> 100 µM
same,Percent Growth,"[2]; log10 conc -4.0, 100 µM",2% and 6%
same,Percent Growth,[2]; log10 conc -5.0,9%
same,Percent Growth,"[2]; log10 conc -6.0, 1 µM",12% and 8%
same,Percent Growth,"[2]; log10 conc -7.0, 0.1 µM",12% and 8%
same,Percent Growth,"[2]; log10 conc -8.0, 0.01 µM",16% and 9%
same,TGI,[14],< 0.01 µM
same,Percent Growth,"[14]; log10 conc -4.0, 100 µM",-30%
same,Percent Growth,[14]; log10 conc -5.0,-21%
same,Percent Growth,"[14]; log10 conc -7.0, 0.1 µM",-12%
same,Percent Growth,"[14]; log10 conc -8.0, 0.01 µM",-16% and -19%
same,GI50,[15]; SF-295,< 0.01 µM
same,CC50,"[15]; SF-295, read-out: LC50",> 100 µM
same,activity at 100 µM,"[15]; SF-295, read-out: Percent Growth, log10 conc -4.0",21%
same,activity at 10 µM,"[15]; SF-295, read-out: Percent Growth, log10 conc -5.0",10%
same,GI50,[16],< 0.01 µM
same,activity in the NCI screen,[16],activity similar to 7-acetamidoallocolchinone; also recorded: active
same,GI50,[17]; HOP-62,< 0.01 µM
same,CC50,"[17]; HOP-62, read-out: LC50",> 100 µM
same,activity at 100 µM,"[17]; HOP-62, read-out: Percent Growth, log10 conc -4.0",43%
same,activity at 10 µM,"[17]; HOP-62, read-out: Percent Growth, log10 conc -5.0",41%
same,activity at 1 µM,"[17]; HOP-62, read-out: Percent Growth, log10 conc -6.0",36%
same,GI50,[18]; HOP-92,0.0176 µM
same,CC50,"[18]; HOP-92, read-out: LC50",> 100 µM
same,GI50,[19],< 0.01 µM
same,CC50,"[19]; human, snb-75 cns cancer cells",> 100 µM
same,Percent Growth,"[19]; log10 conc -4.0, 100 µM",18%
same,Percent Growth,[19]; log10 conc -8.0,-28%
same,GI50,[20],< 0.01 µM
same,CC50,"[20]; human, snb-19 cns cancer cells",> 100 µM
same,Percent Growth,"[20]; log10 conc -4.0, 100 µM",19%
same,Percent Growth,"[20]; log10 conc -6.0, 1 µM",13% and 26%
same,Percent Growth,"[20]; log10 conc -8.0, 0.01 µM",18% and 25%
same,IC50,[21],0.6 µM
same,Percent Growth,[22]; log10 conc -5.0,-19%
same,Percent Growth,"[22]; log10 conc -7.0, 0.1 µM",3%
same,GI50,"[23]; Homo sapiens, MCF7",< 0.01 µM
same,Percent Growth,"[23]; log10 conc -4.0, 100 µM",-22% and -23%
same,GI50,[24],< 0.01 µM
same,CC50,[24]; read-out: LC50,> 100 µM
same,activity at 100 µM,"[24]; read-out: Percent Growth, log10 conc -4.0",6%
same,activity at 10 µM,"[24]; read-out: Percent Growth, log10 conc -5.0",26%
same,activity at 1 µM,"[24]; read-out: Percent Growth, log10 conc -6.0",26%
same,activity at 0.1 µM,"[24]; read-out: Percent Growth, log10 conc -7.0",22%
same,TGI,[25],> 100 µM
same,Percent Growth,"[25]; log10 conc -5.0, 10 µM",26%
same,Percent Growth,"[25]; log10 conc -6.0, 1 µM",40%
same,Percent Growth,"[25]; log10 conc -8.0, 0.01 µM",29%
same,GI50,[26]; SK-OV-3,< 0.01 µM
same,CC50,"[26]; SK-OV-3, read-out: LC50",> 100 µM
same,GI50,[27]; OVCAR-3,< 0.01 µM
same,CC50,"[27]; OVCAR-3, read-out: LC50",> 100 µM
same,GI50,[3],< 0.01 µM
same,TGI,[3],> 0.01 µM
same,CC50,"[3]; human, ovcar-8 ovarian cancer cells",> 100 µM
COc1cc2c(c(OC)c1OC)-c1ccc(C(C)=O)cc1C(N)CC2 (centres unmarked) [7-Amino-allocolchinone],IC50,[21],3 µM
